Data: US20070093433A1, “Aminoglycoside antibiotics for use as vap-1/ssao inhibitors” (priority 2003, published 2007)

Experiments:
VAP-1 [1] = target: T1, VAP-1 (Homo sapiens, UniProt Q16853); assay: SSAO (amine oxidase) activity of VAP-1 transfected cells, radiochemical [14C]-benzylamine and fluorometric Amplex Red H2O2 assays; type: cell-based; design: expressed in transfected cells; host or cells: Ax endothelial cells or CHO cells; conditions: for % of inhibition: VAP-1 transfected Ax endothelial or CHO cells, benzylamine substrate, 30 min pre-incubation at 37° C., agents at 1 mg/ml and 100 μg/ml (concentration not given), representative of 2 to 5 experiments; for effect on enzymatic (SSAO) activity of VAP-1, in words: VAP-1 transfected cells, summary of Table I
T1 sequence (Q16853 1-763): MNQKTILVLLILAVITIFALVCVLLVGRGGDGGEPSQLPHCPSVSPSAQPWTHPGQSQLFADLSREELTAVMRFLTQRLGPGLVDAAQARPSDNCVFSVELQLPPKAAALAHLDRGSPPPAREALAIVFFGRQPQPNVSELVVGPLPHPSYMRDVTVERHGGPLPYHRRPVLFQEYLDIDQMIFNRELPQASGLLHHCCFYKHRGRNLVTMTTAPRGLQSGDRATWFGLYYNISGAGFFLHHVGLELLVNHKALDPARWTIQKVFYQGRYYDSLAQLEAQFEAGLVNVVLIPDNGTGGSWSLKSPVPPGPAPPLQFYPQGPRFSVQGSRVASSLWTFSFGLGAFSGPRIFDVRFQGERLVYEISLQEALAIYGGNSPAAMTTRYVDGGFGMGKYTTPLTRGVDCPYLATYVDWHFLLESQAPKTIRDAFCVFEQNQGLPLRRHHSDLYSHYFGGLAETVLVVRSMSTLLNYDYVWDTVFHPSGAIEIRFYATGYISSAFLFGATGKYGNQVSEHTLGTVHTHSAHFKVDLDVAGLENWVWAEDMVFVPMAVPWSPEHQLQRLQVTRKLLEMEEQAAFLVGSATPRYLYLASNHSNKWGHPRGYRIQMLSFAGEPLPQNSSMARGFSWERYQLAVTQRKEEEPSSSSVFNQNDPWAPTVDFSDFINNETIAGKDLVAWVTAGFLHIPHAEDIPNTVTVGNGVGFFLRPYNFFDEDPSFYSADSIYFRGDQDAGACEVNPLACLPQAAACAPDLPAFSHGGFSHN
Protocol: Amine oxidase activity was assayed radiochemically using [7-^14C]-benzylamine hydrochloride (spec. act. 57 mCi/mmol, Amersham) as a substrate. In brief, the cells (VAP-1 transfected Ax endothelial cells or VAP-1 transfected CHO cells and their mock transfected controls) were seeded onto gelatin-coated 24-well tissue culture plates and allowed to reach confluence. Prior to experiments, the cells were rinsed twice with RPMI 1640 and pre-incubated 30 min at 37° C. in 0.3 ml RPMI-1640 medium containing amikacin, tobramycin, gentamicin, streptomicin or geneticin (1 mg/ml). The reaction was initiated by addition of 6 μmol/L [^14C]-benzylamine (40000 dpm) and terminated after 1 hour by citric acid. The aldehydes were extracted into toluene containing diphenyloxazole and the formation of [^14C]-labelled benzaldehyde was quantified by scintillation counting.
SSAO activity of the cells was also independently measured using Amplex Red reagent (10-acetyl-3,7-dihydroxyphenoxazine; Molecular Probes Europe BV), a highly sensitive and stable probe for H2O2. Cultured cells (VAP-1 transfected Ax endothelial cells or VAP-1 transfected CHO cells and their mock transfected controls) were rinsed with Krebs Ringer phosphate glucose (KRPG; 145 mM NaCl, 5.7 mM sodium phosphate, 4.86 mM KCl, 0.54 mM CaCl2, 1.22 mM MgSO4, 5.5 mM glucose, pH 7.35) and pre-incubated 30 min at 37° C. in 200 μl KRPG containing amikacin, tobramycin, gentamicin, netilmicin, streptomycin, geneticin, glucosamine, mannosamine, galactosamine, or puromycin (1 mg/ml and 100 μg/ml). Catalytic reaction was initiated by addition of benzylamine as substrates and H2O2-detecting mixture containing horseradish peroxidase (final concentration 0.8 U/ml) and Amplex Red reagent (60 μM). The plates were incubated for 1-2 hours at 37° C. in the final volume of 250 μl, the bathing medium was clarified by centrifugation and placed in aliquots (200 μl) into white non-phosphorescent microplates (Cliniplate). Fluorescence intensity of the samples was measured (excitation, 545 nm; emission, 590 nm; Tecan ULTRA fluoropolarometer) and H2O2 concentration was calculated from calibration curves generated by serial dilutions of either standard H2O2 or resorufin, the product of the Amplex Red reaction (Molecular Probes).

VAP-1 [2] = target: T1, VAP-1; assay: Tobramycin serum concentration after intravenous injection in VAP KO+TG versus VAP KO mice (fluorescence polarization immunoassay); type: in vivo, mouse; design: expressed in transfected cells; host or cells: mTIEhVAP-1 transgenic / mouse VAP-1 knockout mice (VAP KO+TG), expression on vasculature; conditions: 3 mg/kg intravenously
Source text: The mTIEhVAP-1 line E35 mice expressing human VAP-1 on vasculature were crossed to VAP-1 knockout mice that were previously created by using conventional gene targeting techniques to replace the mouse VAP-1 gene with a nonfunctional mutant-allele. The mTIEhVAP-1 transgene, mouse VAP-1 mutant-allele and endogenous mouse VAP-1 allele were all identified by PCR screening of purified genomic DNA with specific primers and verified immunohistochemically with human and mouse VAP-1 antibodies.
These mice and VAP KO mice as controls received intravenously tobramycin 3 mg/kg and tobramycin concentration from serum was measured after 30 min, 1, 2 and 3 hours after injections using fluorescence polarization immunoassay.

Compound | % of inhibition (VAP-1 [1]) [%] | effect on enzymatic (SSAO) activity of VAP-1, in words (VAP-1 [1]) | tobramycin concentration in serum, VAP KO+TG mice compared with VAP KO mice (VAP-1 [2]; at 2 and 3 hours, mice expressing human VAP-1 vs VAP KO mice) | difference in serum tobramycin concentration between VAP KO mice and VAP KO+TG mice (VAP-1 [2]; at 3 hours)
CCN[C@@H]1C[C@H](N)[C@@H](O[C@H]2OC(CN)=CC[C@H]2N)[C@H](O)[C@H]1O[C@H]1OC[C@](C)(O)[C@H](NC)[C@H]1O [Netilmicin, netilmicin] | 45 | diminished to variable extent | – | –
gentamicin | 46 | diminished to variable extent | – | –
[H]/N=C(/N)N[C@H]1[C@H](O)[C@@H](O)[C@H](O[C@@H]2O[C@@H](C)[C@](O)(C=O)[C@H]2O[C@@H]2O[C@@H](CO)[C@H](O)[C@@H](O)[C@@H]2NC)[C@@H](N/C(N)=N\[H])[C@@H]1O [Streptomicin, streptomycin] | 5 | – | – | –
N[C@H]1C(O)O[C@H](CO)[C@H](O)[C@@H]1O (some centres unmarked) [Galactosamine, galactosamine] | 12 | did not significantly inhibit | – | –
N[C@@H]1C(O)O[C@H](CO)[C@@H](O)[C@@H]1O (some centres unmarked) [Mannosamine, mannosamine] | 20 | did not significantly inhibit | – | –
N[C@H]1C(O)O[C@H](CO)[C@@H](O)[C@@H]1O (some centres unmarked) [Glucosamine, glucosamine] | 0 | did not significantly inhibit | – | –
CN[C@@H]1[C@@H](O)[C@@H](O[C@@H]2[C@@H](O)[C@H](O[C@H]3O[C@H]([C@@H](C)O)[C@@H](O)[C@H](O)[C@H]3N)[C@@H](N)C[C@H]2N)OC[C@]1(C)O [Geneticin, geneticin] | 46 | – | – | –
COc1ccc(C[C@H](N)C(=O)N[C@H]2[C@@H](O)[C@H](n3cnc4c(N(C)C)ncnc43)O[C@@H]2CO)cc1 [Puromycin, puromycin] | 59 | diminished to variable extent | – | –
NCC[C@H](O)C(=O)N[C@@H]1C[C@H](N)[C@@H](O[C@H]2O[C@H](CN)[C@@H](O)[C@H](O)[C@H]2O)[C@H](O)[C@H]1O[C@H]1O[C@H](CO)[C@@H](O)[C@H](N)[C@H]1O [Amikacin, amikacin] | 84 | diminished to variable extent | – | –
NC[C@H]1O[C@H](O[C@H]2[C@H](O)[C@@H](O[C@H]3O[C@H](CO)[C@@H](O)[C@H](N)[C@H]3O)[C@H](N)C[C@@H]2N)[C@H](N)C[C@@H]1O [Tobramycin, tobramycin] | 78 | diminished to variable extent | lower concentrations | two fold
